Measured values: patent US11345702B1 (Myoforte Therapeutics, Inc., priority 2020, dated 2022)
Values after ≈ are worked out from the molar mass of the structure shown. Read-outs that look alike come from different tables or passages of the source.

How the values were obtained:
[1] = Liver microsome stability assay (RLM); type: in vitro ADME; settings: rat liver microsomes
Procedure: (§1) A microsomal mixture (microsomes and Kphos buffer) was prepared at a concentration of 1.428 mg/mL in 2 mL tubes. To this microsomal mixture 1.6 μL (1 mM) of test compound and positive control were spiked; from this mixture, 70 μL was transferred to 96 well plate and pre-incubated at 37° C. for 5 min. After pre-incubation, the zero minute time point reaction was stopped using 100 μL of ice-cold acetonitrile containing internal standard and […] (3.33 mM in Kphos buffer) was added. The 45 minute time point reaction was initiated by addition of 30 μL of NADPH (3.33 mM in Kphos buffer) and incubated at 37° C. for 15 and 45 min. Reactions without NADPH and buffer controls (minus NADPH) at 0, 15, and 45 minutes were also incubated to rule out non-NADPH metabolism or chemical instability in the incubation buffer. Incubation reactions were stopped with 100 μL of ice-cold acetonitrile containing internal standard. The plates were centrifuged at 4000 RPM for 15 min and 100 μL aliquots were submitted for analysis by LC-MS/MS. (Verapamil in human liver microsomes (HLM) and rat liver microsomes (RLM) was used as positive controls. Imipramine in mouse liver microsomes (MLM) was used as a positive control.) Samples were monitored for parent compound disappearance in MRM mode (multiple reaction monitoring) using LC-MS/MS. The peak area ratios of analyte versus internal standard were used to calculate the % remaining at the end of 45 minutes in the presence of NADPH.

[2] = Liver microsome stability assay (HLM); type: in vitro ADME; settings: human liver microsomes
Procedure: as §1

15-PGDH/HPGD = 15-PGDH/HPGD (Homo sapiens (Human), UniProt P15428); assay: hPGDH inhibitor screening biochemical assay
15-PGDH/HPGD, sequence (P15428 whole entry): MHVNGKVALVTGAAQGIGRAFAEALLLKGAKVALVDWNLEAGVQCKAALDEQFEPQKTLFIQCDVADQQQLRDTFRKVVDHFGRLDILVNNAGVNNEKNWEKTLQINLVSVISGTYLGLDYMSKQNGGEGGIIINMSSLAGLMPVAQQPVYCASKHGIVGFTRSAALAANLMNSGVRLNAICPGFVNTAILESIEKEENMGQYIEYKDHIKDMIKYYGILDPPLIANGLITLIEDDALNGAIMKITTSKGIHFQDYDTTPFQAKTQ
How it was run: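 Recombinant human 15-PGDH (10 nM) pre-incubated with compounds 10 min at 37 °C, then 15 μM PGE2 and 0.25 mM NAD+ added for 10 min at room temperature in 50 mM Tris-HCl pH 7.5, 0.01% Tween 20. NADH fluorescence read at ex/em 340/485 nm. IC50 from 10-point curves, four-parameter fit versus 1% DMSO.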

Solubility at pH 7.4 = type: physicochemical
[3] = Liver microsome stability assay (MLM); type: in vitro ADME; settings: mouse liver microsomes
Procedure: as §1

[4] = pH 7.4, aqueous buffer, read-out: Solubility: Solubility at pH 7.4
[5] = aqueous buffer, pH 7.4, 6-5 ring core, read-out: Solubility at pH 7.4
[6] = aqueous buffer, pH 7.4, phenyl core, read-out: Solubility at pH 7.4

| Compound | RLM + NADPH (% remaining at 45 min) [1] [%] | IC50 (15-PGDH/HPGD; read-out: hPGDH: Average IC50) [nM] | solubility (Solubility at pH 7.4; [5]) [µM] | other results |
| --- | --- | --- | --- | --- |
| O=C(c1cnc2c(c1)c(Cl)cn2-c1cnccn1)N1CCC(F)CC1 [MF-DH-124] | 34 | < 100 |  | HLM + NADPH (% remaining at 45 min) [2]: 48% |
| COc1ccc(-n2c(CC#N)nc3cc(C(=O)N4CCC(F)CC4)cnc32)cc1 [MF-DH-130] | 74 | 100 to 1000 |  | HLM + NADPH (% remaining at 45 min) [2]: 68% |
| Cc1cncc(-n2cc(Cl)c3cc(C(=O)N4CCC(F)CC4)cnc32)n1 [MF-DH-166, (3-chloro-1-(6-methylpyrazin-2-yl)-1H-pyrrolo[2,3-b]pyridin-5-yl)(4-fluoropiperidin-1-yl)methanone] | 33 | < 100 |  | HLM + NADPH (% remaining at 45 min) [2]: 47% |
| Cc1ncc(-n2cc(Cl)c3cc(C(=O)N4CCC(F)CC4)cnc32)cn1 [MF-DH-169, (3-chloro-1-(2-methylpyrimidin-5-yl)-1H-pyrrolo[2,3-b]pyridin-5-yl)(4-fluoropiperidin-1-yl)methanone] | 69 | < 100 |  | HLM + NADPH (% remaining at 45 min) [2]: 71% |
| O=C(c1cnc2c(ccn2-c2ccc3c(c2)OCO3)c1)N1CCC(F)CC1 [MF-DH-175] | 45 | < 100 |  | HLM + NADPH (% remaining at 45 min) [2]: 117% |
| CCC(CC)n1cnc2cc(C(=O)N3CCCCC3)ccc21 [MF-DH-237] | 0 | < 100 |  |  |
| COc1ccc(-n2nnc3cc(C(=O)N4CCC(F)CC4)ccc32)cc1 [MF-DH-242, (4-fluoropiperidin-1-yl)(1-(4-methoxyphenyl)-1H-benzo[d][1,2,3]triazol-5-yl)methanone] | 51 | < 100 |  |  |
| COc1ccc(-n2nnc3cc(C(=O)N4CCCCC4)ccc32)cc1 [MF-DH-243, (1-(4-methoxyphenyl)-1H-benzo[d][1,2,3]triazol-5-yl)(piperidin-1-yl)methanone] | 34 | < 100 |  |  |
| COc1ccc(-n2ncc3cc(C(=O)N4CCCCC4)ccc32)cc1 [MF-DH-245] | 16 | < 100 |  |  |
| COc1ccc(-n2nc(Cl)c3cc(C(=O)N4CCC(F)CC4)ccc32)cc1 [MF-DH-246] | 46 | 100 to 1000 |  |  |
| COc1ccc(-n2nc(Cl)c3cc(C(=O)N4CCCCC4)ccc32)cc1 [MF-DH-247] | 22 | 100 to 1000 |  |  |
| O=C(c1cnc2c(ccn2-c2ccc3c(c2)OC(F)(F)O3)c1)N1CCCCC1 [MF-DH-249] | 29 | < 100 |  |  |
| COCCc1nc2cc(C(=O)N3CCCCC3)cnc2n1-c1ccc(OC)cc1 [MF-DH-267] | 67 | 100 to 1000 |  |  |
| COc1ccc(-n2c(CCC(F)(F)F)nc3cc(C(=O)N4CCCCC4)cnc32)cc1 [MF-DH-268] | 60 | 100 to 1000 |  |  |
| COc1ccc(-n2ccc3c(C)c(C(=O)N4CCCCC4)cnc32)cc1 [MF-DH-287] | 44 | < 100 |  |  |
| O=C(c1ccc2c(cnn2-c2cncc(Cl)c2)c1)N1CCCCC1 [MF-DH-292] | 27 | < 100 |  | solubility (Solubility at pH 7.4; [4]): 69 µM (≈ 23.5 µg/mL) |
| COc1ccc(Cn2ncc3cc(-n4ccc5cc(C(=O)N6CCCCC6)cnc54)ccc32)cc1 [MF-DH-337] | 1 | < 100 |  | solubility (Solubility at pH 7.4; [4]): < 5 µM |
| Cc1c(C(=O)N2CCC(F)CC2)cnc2c1ccn2-c1ccc(C(N)=O)cc1 [MF-DH-380, 4-(5-(4-fluoropiperidine-1-carbonyl)-4-methyl-1H-pyrrolo[2,3-b]pyridin-1-yl)benzamide] |  | < 100 |  | solubility (Solubility at pH 7.4; [4]): 75 µM (≈ 28.5 µg/mL); MLM + NADPH (% remaining at 45 min) [3]: 89% |
| C[C@@H]1C[C@H](C)CN(C(=O)c2cnc3c(ccn3-c3ccc(C(N)=O)cc3)c2)C1 [MF-DH-395, 4-(5-((3R,5S)-3,5-dimethylpiperidine-1-carbonyl)-1H-pyrrolo[2,3-b]pyridin-1-yl)benzamide] |  | < 100 |  | solubility (Solubility at pH 7.4; [4]): 80 µM (≈ 30.1 µg/mL); MLM + NADPH (% remaining at 45 min) [3]: 8% |
| CC(C)NC(=O)c1ccc(-n2ccc3cc(C(=O)N4CCC(F)(F)CC4)cnc32)cc1 [MF-DH-404] |  | < 100 |  | solubility (Solubility at pH 7.4; [4]): < 5 µM; MLM + NADPH (% remaining at 45 min) [3]: 101% |
| O=C(O)c1ccc(-n2ccc3cc(C(=O)N4CCC(F)(F)CC4)cnc32)cc1 [MF-DH-424, 4-(5-(4,4-difluoropiperidine-1-carbonyl)-1H-pyrrolo[2,3-b]pyridin-1-yl)benzoic acid] |  | < 100 |  | solubility (Solubility at pH 7.4; [4]): 156 µM (≈ 60.1 µg/mL); MLM + NADPH (% remaining at 45 min) [3]: 96% |
| O=C(c1cnc2c(ccn2-c2cncc(-c3nnn[nH]3)c2)c1)N1CCC(F)(F)CC1 [MF-DH-453, (1-(5-(1H-tetrazol-5-yl)pyridin-3-yl)-1H-pyrrolo[2,3-b]pyridin-5-yl)(4,4-difluoropiperidin-1-yl)methanone] |  | < 100 |  | solubility (Solubility at pH 7.4; [4]): > 100 µM; MLM + NADPH (% remaining at 45 min) [3]: 116% |
| O=C(c1cnc2c(ccn2-c2cncc(-c3noc(=O)[nH]3)c2)c1)N1CCC(F)(F)CC1 [MF-DH-454, 3-(5-(5-(4,4-difluoropiperidine-1-carbonyl)-1H-pyrrolo[2,3-b]pyridin-1-yl)pyridin-3-yl)-1,2,4-oxadiazol-5(4H)-one] |  | < 100 |  | solubility (Solubility at pH 7.4; [4]): > 100 µM; MLM + NADPH (% remaining at 45 min) [3]: 92% |
| O=C(Nc1cncc(-n2ccc3cc(C(=O)N4CCC(F)(F)CC4)cnc32)c1)c1ccno1 [MF-DH-458] |  | < 100 |  | solubility (Solubility at pH 7.4; [4]): 62 µM (≈ 28.1 µg/mL); MLM + NADPH (% remaining at 45 min) [3]: 68% |

| Compound | RLM + NADPH (% remaining at 45 min) [1] [%] | IC50 (15-PGDH/HPGD; read-out: hPGDH: Average IC50) [nM] | solubility (Solubility at pH 7.4; [5]) [µM] | other results |
| --- | --- | --- | --- | --- |
| COc1ccc(-n2cnc3cc(C(=O)N4CCCCC4)cnc32)cc1 [MF-PGDH-077] | 84 | < 100 |  | Solubility: Solubility at pH 7.4 (μM) (Solubility at pH 7.4; pH 7.4): 160 μM; HLM + NADPH (% remaining at 45 min) [2]: 97% |
| COc1ccc(-n2cnc3cc(C(=O)N4CCC(F)CC4)cnc32)cc1 [MF-PGDH-078] | 89 | < 100 |  | Solubility: Solubility at pH 7.4 (μM) (Solubility at pH 7.4; pH 7.4): 140 μM; HLM + NADPH (% remaining at 45 min) [2]: 96% |
| COc1ccc(-n2cnc3cc(C(=O)N4CCC(F)(F)CC4)cnc32)cc1 [MF-PGDH-079] | 87 | < 100 |  | Solubility: Solubility at pH 7.4 (μM) (Solubility at pH 7.4; pH 7.4): 140 μM; HLM + NADPH (% remaining at 45 min) [2]: 100% |
| COc1ccc(-n2cnc3cc(C(=O)N4CCC(F)(F)CC4)cnc32)cc1 [drawing 191] |  |  | 140 (≈ 52.1 µg/mL) |  |
| COc1ccc(-n2cnc3cc(C(=O)N4CCC(F)CC4)cnc32)cc1 [drawing 192] |  |  | 140 (≈ 49.6 µg/mL) |  |
| COc1ccc(-n2cnc3cc(C(=O)N4CCCCC4)cnc32)cc1 [drawing 193] |  |  | 160 (≈ 53.8 µg/mL) |  |
| O=C(c1ccc2c(c1)ncn2-c1cccc(Cl)c1)N1CCCCC1 [drawing 211] |  |  | 120 (≈ 40.8 µg/mL) |  |
| O=C(c1ccc2c(c1)ncn2-c1cccc(Cl)c1)N1CC2(CCC2)C1 [drawing 212] |  |  | 16 (≈ 5.63 µg/mL) |  |
| O=C(c1ccc2c(c1)ncn2-c1cccc(Cl)c1)N1CC2CCCC2C1 (centres unmarked) [drawing 215] |  |  | 33 (≈ 12.1 µg/mL) |  |
| O=C(c1cnc2c(ccn2-c2cccc(Cl)c2)c1)N1CCCCC1 [drawing 216] |  |  | 21 (≈ 7.14 µg/mL) | IC50 (15-PGDH/HPGD; PGDH inhibitors with a 6-5 ring core, read-out: hPGDH: IC50): 1.5 nM |
| COc1ccc(-n2c(C3CC3)nc3cc(C(=O)N4CCCCC4)ccc32)cc1 [drawing 218] |  |  | 45 (≈ 16.9 µg/mL) |  |
| O=C(c1cnc2c(c1)ncn2-c1cccc(Cl)c1)N1CCCCC1 [drawing 219] |  |  | 150 (≈ 51.1 µg/mL) |  |
| O=C(c1cnc2c(-c3cccc(Cl)c3)cnn2c1)N1CCCCC1 [drawing 220] |  |  | < 5 |  |
| O=C(c1ccc2c(c1)nnn2-c1cccc(Cl)c1)N1CCCCC1 [drawing 221] |  |  | 68 (≈ 23.2 µg/mL) |  |
| COc1ccc(-n2cnc3cc(C(=O)N4CCC(F)CC4)ccc32)cc1 [drawing 222] |  |  | 160 (≈ 56.5 µg/mL) |  |
| COc1ccc(-n2cnc3cc(C(=O)N4CCCCC4)ccc32)cc1 [drawing 223] |  |  | 150 (≈ 50.3 µg/mL) |  |
| O=C(c1ccc2c(cnn2-c2cccc(Cl)c2)c1)N1CCCCC1 [drawing 224] |  |  | 6.9 (≈ 2.34 µg/mL) |  |
| O=C(c1ccc2c(ccn2-c2cccc(Cl)c2)c1)N1CCCCC1 [drawing 225] |  |  | < 5 |  |
| COc1ccccc1C(=O)N(C)c1ccc(C(=O)N2CCCCC2)cc1 [drawing 229] |  |  |  | solubility (Solubility at pH 7.4; [6]): 160 µM (≈ 56.4 µg/mL) |
| O=C(c1ccc(COc2ccccc2Cl)cc1)N1CCCCC1 [drawing 230] |  |  |  | solubility (Solubility at pH 7.4; [6]): 38 µM (≈ 12.5 µg/mL) |
| COc1ccccc1C(=O)Nc1ccc(C(=O)N2CCCCC2)cc1 [drawing 231] |  |  |  | solubility (Solubility at pH 7.4; [6]): 29 µM (≈ 9.81 µg/mL) |
| COc1ccccc1NC(=O)c1ccc(C(=O)N2CCCCC2)cc1 [drawing 232] |  |  |  | solubility (Solubility at pH 7.4; [6]): 88 µM (≈ 29.8 µg/mL) |
| O=C(c1ccc(COc2ccccc2Br)cc1)N1CCCCC1 [drawing 233] |  |  |  | solubility (Solubility at pH 7.4; [6]): 6.3 µM (≈ 2.36 µg/mL) |
